Source: ChEMBL document CHEMBL4507268 (2021)

Columns and labels:
[1] = target: D(4) dopamine receptor (Homo sapiens) (UniProt P21917); conditions: Compound concentration 10.0 uM
[2] = target: Myosin-IIIa (Homo sapiens) (UniProt Q8NEV4); conditions: Compound concentration 1000.0 nM
[3] = target: Beta-2 adrenergic receptor (Homo sapiens) (UniProt P07550); conditions: Compound concentration 10.0 uM
[4] = target: T1, Mitogen-activated protein kinase kinase kinase 7 (Homo sapiens) (UniProt O43318); conditions: Compound concentration 1000.0 nM
T1 sequence (whole entry): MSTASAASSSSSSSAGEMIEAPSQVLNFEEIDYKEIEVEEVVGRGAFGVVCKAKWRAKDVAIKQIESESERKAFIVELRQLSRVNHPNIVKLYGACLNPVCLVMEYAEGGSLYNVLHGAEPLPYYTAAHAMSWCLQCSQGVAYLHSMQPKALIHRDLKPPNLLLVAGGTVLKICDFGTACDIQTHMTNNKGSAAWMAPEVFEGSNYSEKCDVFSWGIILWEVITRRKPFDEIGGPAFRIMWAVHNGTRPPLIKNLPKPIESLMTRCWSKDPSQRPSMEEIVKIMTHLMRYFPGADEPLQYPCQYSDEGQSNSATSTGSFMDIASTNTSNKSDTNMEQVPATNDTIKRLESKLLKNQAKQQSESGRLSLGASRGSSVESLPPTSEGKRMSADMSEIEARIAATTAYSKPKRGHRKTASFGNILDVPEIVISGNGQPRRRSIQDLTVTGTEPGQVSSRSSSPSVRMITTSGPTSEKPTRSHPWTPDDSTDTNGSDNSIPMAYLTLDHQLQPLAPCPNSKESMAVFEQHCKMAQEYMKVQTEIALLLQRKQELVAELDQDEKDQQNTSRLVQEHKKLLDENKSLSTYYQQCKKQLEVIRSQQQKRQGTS

[5] = target: Alpha-1A adrenergic receptor (Homo sapiens) (UniProt P35348); conditions: Compound concentration 10.0 uM
[6] = target: 3-phosphoinositide-dependent protein kinase 1 (Homo sapiens) (UniProt O15530); conditions: Compound concentration 1000.0 nM
[7] = target: Serine/threonine-protein kinase WNK2 (Homo sapiens) (UniProt Q9Y3S1); conditions: Compound concentration 1000.0 nM
[8] = target: Interferon-induced, double-stranded RNA-activated protein kinase (Homo sapiens) (UniProt P19525); conditions: Compound concentration 1000.0 nM
[9] = tested on: Epidermal growth factor receptor (Homo sapiens), P00533 [L858R]; conditions: Compound concentration 1000.0 nM
[10] = target: Serine/threonine-protein kinase PLK1 (Homo sapiens) (UniProt P53350); conditions: Compound concentration 1000.0 nM
[11] = tested on: Proto-oncogene tyrosine-protein kinase receptor Ret (Homo sapiens), P07949 [V804M]; conditions: Compound concentration 1000.0 nM
[12] = tested on: Mast/stem cell growth factor receptor Kit (Homo sapiens), P10721 [A829P]; conditions: Compound concentration 1000.0 nM
[13] = tested on: eIF-2-alpha kinase GCN2 (Homo sapiens), Q9P2K8 [S808G]; conditions: Compound concentration 1000.0 nM
[14] = tested on: Hepatocyte growth factor receptor (Homo sapiens), P08581 [Y1235D]; conditions: Compound concentration 1000.0 nM
[15] = target: LIM domain kinase 2 (Homo sapiens) (UniProt P53671); conditions: Compound concentration 1000.0 nM
[16] = target: Tyrosine-protein kinase Lck (Homo sapiens) (UniProt P06239); conditions: Compound concentration 1000.0 nM
[17] = target: Ribosomal protein S6 kinase alpha-1 (Homo sapiens) (UniProt Q15418); conditions: Compound concentration 1000.0 nM
[18] = target: Mu-type opioid receptor (Homo sapiens) (UniProt P35372); conditions: Compound concentration 10.0 uM
[19] = tested on: Epidermal growth factor receptor (Homo sapiens), P00533 [UNDEFINED MUTATION]; conditions: Compound concentration 1000.0 nM
[20] = target: T2, Ephrin type-B receptor 2 (Homo sapiens) (UniProt P29323); conditions: Compound concentration 1000.0 nM
T2 sequence (whole entry): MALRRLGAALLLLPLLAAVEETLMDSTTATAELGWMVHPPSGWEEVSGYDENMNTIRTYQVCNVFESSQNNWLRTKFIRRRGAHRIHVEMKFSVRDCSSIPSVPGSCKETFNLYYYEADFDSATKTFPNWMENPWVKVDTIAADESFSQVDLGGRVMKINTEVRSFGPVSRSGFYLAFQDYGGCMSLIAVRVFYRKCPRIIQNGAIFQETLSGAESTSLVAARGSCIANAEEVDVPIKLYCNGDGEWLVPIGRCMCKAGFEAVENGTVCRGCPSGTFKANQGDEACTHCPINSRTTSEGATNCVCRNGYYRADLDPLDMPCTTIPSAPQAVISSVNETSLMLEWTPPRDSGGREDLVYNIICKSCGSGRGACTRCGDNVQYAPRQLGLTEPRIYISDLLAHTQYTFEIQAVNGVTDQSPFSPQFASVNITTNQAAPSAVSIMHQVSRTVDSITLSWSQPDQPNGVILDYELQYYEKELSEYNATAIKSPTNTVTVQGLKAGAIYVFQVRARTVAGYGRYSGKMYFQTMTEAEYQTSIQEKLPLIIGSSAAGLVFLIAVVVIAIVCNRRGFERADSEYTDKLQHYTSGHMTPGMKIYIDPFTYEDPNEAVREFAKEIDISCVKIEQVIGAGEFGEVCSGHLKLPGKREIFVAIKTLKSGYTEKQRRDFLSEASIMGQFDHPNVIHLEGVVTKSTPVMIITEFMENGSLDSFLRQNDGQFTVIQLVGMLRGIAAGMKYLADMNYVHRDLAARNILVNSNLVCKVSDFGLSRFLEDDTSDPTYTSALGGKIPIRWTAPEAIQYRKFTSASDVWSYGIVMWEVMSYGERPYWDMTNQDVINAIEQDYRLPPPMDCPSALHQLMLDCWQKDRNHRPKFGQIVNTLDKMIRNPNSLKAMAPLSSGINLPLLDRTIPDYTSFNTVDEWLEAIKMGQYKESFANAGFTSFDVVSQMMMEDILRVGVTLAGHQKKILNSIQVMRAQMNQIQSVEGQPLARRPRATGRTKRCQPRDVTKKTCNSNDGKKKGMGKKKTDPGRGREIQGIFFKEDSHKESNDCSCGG

Chain of Mu-type opioid receptor (Homo sapiens) (P35372 whole entry): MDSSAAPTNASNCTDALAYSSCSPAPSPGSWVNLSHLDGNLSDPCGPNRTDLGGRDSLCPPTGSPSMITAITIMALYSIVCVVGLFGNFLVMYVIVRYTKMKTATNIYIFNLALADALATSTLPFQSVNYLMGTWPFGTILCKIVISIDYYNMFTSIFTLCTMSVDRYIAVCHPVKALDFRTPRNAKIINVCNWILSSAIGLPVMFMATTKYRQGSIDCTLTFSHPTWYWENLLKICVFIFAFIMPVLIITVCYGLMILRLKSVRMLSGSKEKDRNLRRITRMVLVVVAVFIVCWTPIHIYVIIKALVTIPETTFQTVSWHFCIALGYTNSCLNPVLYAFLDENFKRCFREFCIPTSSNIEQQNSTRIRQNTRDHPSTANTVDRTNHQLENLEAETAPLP
Chain of LIM domain kinase 2 (Homo sapiens) (P53671 whole entry, looked up, the tested form may be a part): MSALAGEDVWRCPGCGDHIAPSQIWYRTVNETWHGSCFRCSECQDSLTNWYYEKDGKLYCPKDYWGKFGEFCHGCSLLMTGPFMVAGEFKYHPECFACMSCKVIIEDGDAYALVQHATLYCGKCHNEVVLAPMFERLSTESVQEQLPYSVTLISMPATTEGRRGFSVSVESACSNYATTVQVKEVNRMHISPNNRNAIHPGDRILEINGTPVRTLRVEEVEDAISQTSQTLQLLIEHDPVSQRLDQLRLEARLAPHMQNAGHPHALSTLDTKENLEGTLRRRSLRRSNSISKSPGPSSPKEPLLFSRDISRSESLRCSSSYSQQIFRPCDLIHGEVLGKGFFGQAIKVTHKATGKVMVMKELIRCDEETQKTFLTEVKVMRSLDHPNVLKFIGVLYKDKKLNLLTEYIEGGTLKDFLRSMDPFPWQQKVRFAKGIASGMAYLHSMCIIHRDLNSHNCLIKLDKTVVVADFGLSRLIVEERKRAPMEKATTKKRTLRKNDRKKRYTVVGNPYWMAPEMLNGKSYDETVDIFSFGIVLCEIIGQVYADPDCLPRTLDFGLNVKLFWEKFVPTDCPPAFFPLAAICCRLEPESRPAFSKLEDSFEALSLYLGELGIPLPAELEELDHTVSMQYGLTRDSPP
Chain of Myosin-IIIa (Homo sapiens) (Q8NEV4 whole entry): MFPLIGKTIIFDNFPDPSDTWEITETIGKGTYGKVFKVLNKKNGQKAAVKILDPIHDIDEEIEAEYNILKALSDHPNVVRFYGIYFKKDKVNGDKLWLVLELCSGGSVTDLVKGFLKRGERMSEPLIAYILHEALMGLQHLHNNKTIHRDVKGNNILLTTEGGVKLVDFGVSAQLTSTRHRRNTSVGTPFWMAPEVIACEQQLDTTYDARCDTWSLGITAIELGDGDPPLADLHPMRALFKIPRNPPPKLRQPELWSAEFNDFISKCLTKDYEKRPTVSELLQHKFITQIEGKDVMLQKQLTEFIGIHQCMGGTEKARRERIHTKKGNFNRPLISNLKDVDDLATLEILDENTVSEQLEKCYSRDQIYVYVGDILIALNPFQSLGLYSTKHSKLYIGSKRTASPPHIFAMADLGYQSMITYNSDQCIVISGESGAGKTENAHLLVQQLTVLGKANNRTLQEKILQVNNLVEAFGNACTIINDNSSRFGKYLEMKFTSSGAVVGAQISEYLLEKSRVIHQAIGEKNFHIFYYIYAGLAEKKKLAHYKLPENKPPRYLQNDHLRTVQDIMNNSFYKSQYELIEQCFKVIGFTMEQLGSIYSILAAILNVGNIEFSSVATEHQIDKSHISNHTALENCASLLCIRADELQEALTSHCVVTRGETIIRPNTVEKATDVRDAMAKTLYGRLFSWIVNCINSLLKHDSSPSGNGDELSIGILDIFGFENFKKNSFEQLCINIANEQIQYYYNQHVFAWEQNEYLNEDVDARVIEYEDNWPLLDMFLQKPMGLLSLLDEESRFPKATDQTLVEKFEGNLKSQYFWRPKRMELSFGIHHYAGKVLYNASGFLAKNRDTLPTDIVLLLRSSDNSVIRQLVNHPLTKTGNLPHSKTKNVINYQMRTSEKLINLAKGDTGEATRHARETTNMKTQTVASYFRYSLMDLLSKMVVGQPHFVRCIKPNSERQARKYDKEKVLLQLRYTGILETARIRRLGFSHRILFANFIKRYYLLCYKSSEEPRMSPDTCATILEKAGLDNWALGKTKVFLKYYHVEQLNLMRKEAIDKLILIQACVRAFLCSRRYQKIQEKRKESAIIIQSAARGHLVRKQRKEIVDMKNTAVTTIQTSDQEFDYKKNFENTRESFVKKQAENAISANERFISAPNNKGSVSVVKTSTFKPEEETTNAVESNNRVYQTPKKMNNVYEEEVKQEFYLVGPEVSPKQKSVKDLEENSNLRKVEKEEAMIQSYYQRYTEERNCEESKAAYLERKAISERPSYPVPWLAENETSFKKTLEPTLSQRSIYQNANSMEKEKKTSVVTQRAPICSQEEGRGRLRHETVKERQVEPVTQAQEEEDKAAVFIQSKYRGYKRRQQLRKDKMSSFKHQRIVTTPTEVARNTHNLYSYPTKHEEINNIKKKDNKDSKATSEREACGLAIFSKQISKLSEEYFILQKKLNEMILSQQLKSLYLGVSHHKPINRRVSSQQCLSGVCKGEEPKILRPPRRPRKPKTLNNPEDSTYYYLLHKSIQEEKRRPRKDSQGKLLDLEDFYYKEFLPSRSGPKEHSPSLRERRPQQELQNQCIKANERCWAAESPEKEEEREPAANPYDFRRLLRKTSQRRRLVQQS
Chain of D(4) dopamine receptor (Homo sapiens) (P21917 whole entry): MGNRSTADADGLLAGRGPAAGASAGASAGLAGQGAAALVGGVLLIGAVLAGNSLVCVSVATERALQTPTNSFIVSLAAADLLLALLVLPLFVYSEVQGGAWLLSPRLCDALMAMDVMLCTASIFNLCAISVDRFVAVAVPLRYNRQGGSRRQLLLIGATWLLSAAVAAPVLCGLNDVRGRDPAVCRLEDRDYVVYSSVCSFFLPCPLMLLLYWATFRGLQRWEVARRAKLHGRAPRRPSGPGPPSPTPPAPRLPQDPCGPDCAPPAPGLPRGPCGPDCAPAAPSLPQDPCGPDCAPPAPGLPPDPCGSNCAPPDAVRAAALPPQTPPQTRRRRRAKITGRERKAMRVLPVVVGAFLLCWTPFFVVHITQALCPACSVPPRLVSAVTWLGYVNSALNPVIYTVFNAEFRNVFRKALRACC
Chain of eIF-2-alpha kinase GCN2 (Homo sapiens), Q9P2K8 [S808G] (Q9P2K8 whole entry S808G): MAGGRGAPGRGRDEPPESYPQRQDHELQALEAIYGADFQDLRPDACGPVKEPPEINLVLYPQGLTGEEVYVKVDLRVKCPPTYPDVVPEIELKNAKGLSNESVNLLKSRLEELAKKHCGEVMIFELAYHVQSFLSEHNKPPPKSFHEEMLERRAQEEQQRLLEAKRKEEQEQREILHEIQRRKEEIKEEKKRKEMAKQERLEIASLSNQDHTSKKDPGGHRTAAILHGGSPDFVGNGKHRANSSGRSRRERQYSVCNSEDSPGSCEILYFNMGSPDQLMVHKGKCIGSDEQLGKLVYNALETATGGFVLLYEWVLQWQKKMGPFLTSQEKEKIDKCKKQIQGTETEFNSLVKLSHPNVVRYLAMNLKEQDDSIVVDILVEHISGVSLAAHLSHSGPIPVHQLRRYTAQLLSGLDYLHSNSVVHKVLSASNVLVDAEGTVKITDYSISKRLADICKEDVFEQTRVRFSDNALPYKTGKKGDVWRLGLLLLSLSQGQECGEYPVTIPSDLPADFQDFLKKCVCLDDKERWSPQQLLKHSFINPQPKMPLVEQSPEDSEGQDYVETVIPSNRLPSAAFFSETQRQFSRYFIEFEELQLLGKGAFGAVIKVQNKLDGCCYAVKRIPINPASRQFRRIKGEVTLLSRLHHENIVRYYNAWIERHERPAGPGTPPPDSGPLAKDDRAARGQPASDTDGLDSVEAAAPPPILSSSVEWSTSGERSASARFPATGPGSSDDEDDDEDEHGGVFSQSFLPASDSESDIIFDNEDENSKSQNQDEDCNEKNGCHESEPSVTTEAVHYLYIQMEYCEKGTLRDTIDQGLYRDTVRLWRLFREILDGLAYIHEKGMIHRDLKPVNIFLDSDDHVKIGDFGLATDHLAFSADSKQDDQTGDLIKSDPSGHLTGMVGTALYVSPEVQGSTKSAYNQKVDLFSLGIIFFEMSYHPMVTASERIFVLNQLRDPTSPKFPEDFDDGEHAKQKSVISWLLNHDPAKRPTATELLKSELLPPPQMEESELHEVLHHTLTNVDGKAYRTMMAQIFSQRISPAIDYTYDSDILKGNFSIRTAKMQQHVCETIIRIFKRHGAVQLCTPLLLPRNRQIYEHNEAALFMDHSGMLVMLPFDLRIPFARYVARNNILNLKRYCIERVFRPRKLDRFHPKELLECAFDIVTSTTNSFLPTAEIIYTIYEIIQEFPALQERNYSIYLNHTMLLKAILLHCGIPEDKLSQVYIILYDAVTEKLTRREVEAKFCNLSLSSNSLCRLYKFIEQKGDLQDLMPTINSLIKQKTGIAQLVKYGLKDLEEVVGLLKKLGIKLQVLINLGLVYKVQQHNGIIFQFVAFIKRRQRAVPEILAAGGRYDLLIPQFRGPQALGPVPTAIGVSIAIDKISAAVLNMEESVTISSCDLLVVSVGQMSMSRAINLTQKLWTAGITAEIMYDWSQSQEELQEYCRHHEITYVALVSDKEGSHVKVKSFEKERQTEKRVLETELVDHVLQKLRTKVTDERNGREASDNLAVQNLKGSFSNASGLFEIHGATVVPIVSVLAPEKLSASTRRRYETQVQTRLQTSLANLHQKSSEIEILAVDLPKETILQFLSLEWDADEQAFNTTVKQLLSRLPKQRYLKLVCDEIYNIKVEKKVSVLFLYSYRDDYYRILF

Row | Structure (SMILES) | inhibition [1] [%] | residual activity [2] [%] | inhibition [3] [%] | residual activity [4] [%] | inhibition [5] [%] | residual activity [6] [%] | residual activity [7] [%] | residual activity [8] [%] | residual activity [9] [%] | residual activity [10] [%] | residual activity [11] [%] | residual activity [12] [%] | residual activity [13] [%] | residual activity [14] [%] | residual activity [15] [%] | residual activity [16] [%] | residual activity [17] [%] | inhibition [18] [%] | residual activity [19] [%] | residual activity [20] [%]
1 | Cc1nc(C2CCN(C(=O)c3ccc(OC(F)(F)F)cc3N)CC2)c2ncc(N3CCN(C)CC3)cc2n1 [BAY-693] | 1.98 | 100 | -5.65 | 100 | -9.85 | 93 | 100 | 95 | 89 | 79 | 100 | 86 | 90 | 98 | 95 | 100 | 100 | -1.66 | 49 | 100
2 | CN1CCN(c2cnc3c(C4CCN(C(=O)c5ccc(OC(F)(F)F)cc5N)CC4)ncnc3c2)CC1 [BAY-885] | 12.7 | 100 | -4.21 | 100 | 1.11 | 85 | 100 | 85 | 100 | 93 | 100 | 100 | 99 | 73 | 100 | 100 | 100 | 13.2 | 38 | 78
